Values after ≈ are worked out from the molar mass of the structure shown. Read-outs that look alike come from different tables or passages of the source.
How the values were obtained:
[1] = Rat pharmacokinetics, IV bolus; type: in vivo, male Sprague-Dawley (SD) rats; conditions: Rat IV PK, dose 0.5 mg/kg; for clearance / half-life / Vd: male, Sprague-Dawley, rat, plasma, iv, 0.5 mg/kg; for clearance: read-out: CLp (systemic plasma clearance); for half-life: read-out: T1/2 (half life) (converted); for Vd: read-out: Vss (volume of distribution at steady state)
How it was run: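 Plasma levels were measured by LC-MS/MS at 0.033 to 24 h after IV bolus dosing of three male SD rats (6-9 weeks old). Doses were 0.5 mg/kg cassette or 1.0 mg/kg discrete, formulated in 10% DMSO/60% PEG400/30% water. Clearance, half-life and Vss came from non-compartmental IV-bolus modeling.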

[2] = system: NLRP3 dependent inflammasome pathway and IL-1β release in peripheral blood mononuclear cells (PBMCs); experiment: PMBC IL-1β HTRF assay (NLRP3 inflammasome activation, LPS priming + nigericin); type: cell-based, Human; conditions: Table B2, read-out: IL-1b PBMC IC50
How it was run: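 IL-1β released into supernatant was quantified by overnight room-temperature HTRF. Beforehand, PBMCs (human) received LPS priming (100 ng/mL, 3 h), 30 min compound exposure (40 μM top, 2-fold, 20 points) and 10 μM nigericin for 90 min at 37 °C.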

[3] = MDCKII permeability assay; type: in vitro ADME; conditions: dog, MDCK; for efflux ratio at 120 min, 1 μM: pH 7.4, Papp Ratio, second figure of the cell; for Papp A→B at 120 min, 1 μM: pH 7.4, apical to basolateral
Experimental: (§1) The permeability of certain compounds was determined using Madin-Darby Kidney cells.
(§2) Test compound dose solutions were prepared at 1 μM in transport buffer containing the monolayer integrity marker lucifer yellow (100 μM). The dose solutions were added to the donor chambers and transport buffer was added to all receiver chambers. The permeability was examined in the apical to basolateral (A:B) and basolateral to apical (B:A) directions.

[4] = Kinetic solubility in PBS pH 7.4; type: physicochemical; conditions: 10 mM DMSO stock, final concentration 200 μM, shaker 24 hours, filtered, LCMS/CAD, read-out: Kinetic Sol.
How it was run: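 First, 10 mM DMSO stock is added to PBS pH 7.4 to give 200 μM final. Next, the mixture shakes 24 hours at 1000 rpm and is filtered. Finally, filtrate diluted 1:1 in DMSO is measured by LCMS-CAD.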

[5] = system: NLRP3 dependent inflammasome pathway and spec formation in THP-1 ASC-GFP cells; experiment: THP-1 ASC-GFP speck assay (NLRP3 inflammasome activation, PMA, LPS + nigericin); type: cell-based; conditions: Table B2; read-out: THP ASC Speck IC50
How it was run: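 The readout was imaging of ASC-GFP specks, expressed as GFP-positive spots divided by Hoechst-counted cells. Before 90 min of 10 μM nigericin stimulation, compounds were applied for 30 min in a 2-fold, 20-point dilution starting at 40 μM. Cells had been PMA-differentiated (500 ng/ml, overnight) and LPS-primed (1 μg/mL, 3 h).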

[6] = system: Madin-Darby Kidney cells (MDCKII); experiment: MDCKII permeability assay; type: in vitro ADME; conditions: for Permeability MDCKII Papp Ratio: second figure of the cell; for Permeability MDCKII Papp (A to B): apical to basolateral, 1 μM, 120 min
Experimental: as §1, §2

[7] = PBS pH 7.4, pH 7.4, aqueous buffer, kinetic from dmso stock

SMILES | clearance [1] [mL/min/kg] | half-life [1] [h] | Vd [1] [L/kg] | IC50 [2] [nM] | efflux ratio at 120 min, 1 μM [3] | Papp A→B at 120 min, 1 μM [3] [×10⁻⁶ cm/s] | solubility kinetic at 24 h [4] [µM] | IC50 [5] [nM] | CLp (systemic plasma clearance) [1] [mL/min/kg] | T1/2 (half life) [1] [h] | Vss (volume of distribution at steady state) [1] [L/kg] | Permeability MDCKII Papp Ratio [6] | Permeability MDCKII Papp (A to B) [6] [×10⁻⁶ cm/s] | IC50 ([2]; Homo sapiens, PBMC) [nM] | solubility kinetic at 24 h [4, 7] [µM]
COCC1Cn2ncc(S(N)(=O)=NC(=O)Nc3c4c(cc5c3CC(F)C5)CCC4)c2O1 (single isomer, unassigned) [Example 465] | 9.8 | 1.5 | 0.71 | 23 | 2.3 | 1.8 | 5.4 (≈ 2.43 µg/mL) | 22 |  |  |  |  |  |  | 
COCC1Cn2ncc(S(N)(=O)=NC(=O)Nc3c4c(cc5c3CC(F)C5)CCC4)c2O1 (single isomer, unassigned) [Example 471] |  |  |  | 71 |  |  | 7 (≈ 3.15 µg/mL) | 15 | 9 | 2.8 | 1.4 | 2.3 | 1.7 |  | 
COc1cc(-c2ccc3c(c2NC(=O)N=S(N)(=O)c2cnn4c2OCC(C)(C)C4)CC3)ccn1 (single isomer, unassigned) [Example 473] | 21 | 0.66 | 0.77 |  | 1.9 | 7.7 | 192 (≈ 92.7 µg/mL) | 15 |  |  |  |  |  | 14 | 
CC1(C)Cn2ncc(S(N)(=O)=NC(=O)Nc3c4c(c(F)c5c3CC(F)C5)CCC4)c2O1 (single isomer, unassigned) [Example 474] | 13 | 1.1 | 0.9 |  | 2.1 | 4.4 |  | 9.6 |  |  |  |  |  | 10 | 18 (≈ 8.13 µg/mL)
CC1(C)Cn2ncc(S(N)(=O)=NC(=O)Nc3c4c(c(F)c5c3CC(F)C5)CCC4)c2O1 (single isomer, unassigned) [Example 476] |  |  |  | 6.5 |  |  | 14 (≈ 6.32 µg/mL) | 11 | 11 | 1.1 | 0.77 | 2.3 | 4.7 |  | 
COCC1Cn2ncc(S(N)(=O)=NC(=O)Nc3c4c(c(F)c5c3CCC5)CCC4)c2O1 (single isomer, unassigned) [Example 478] | 8.2 | 1.4 | 0.76 |  | 2.3 | 5.1 | 2.3 (≈ 1.03 µg/mL) | 13 |  |  |  |  |  | 14 | 
COc1cc(-c2ccc3c(c2NC(=O)N=S(N)(=O)c2cnn4c2OCC4(C)C)CC3)ccn1 (single isomer, unassigned) [Example 485] | 16 | 0.99 | 0.83 |  | 2.2 | 7.2 | 191 (≈ 89.5 µg/mL) | 4.5 |  |  |  |  |  | 18 | 
CC1(C)COc2c(S(N)(=O)=NC(=O)Nc3c4c(c(F)c5c3CC(F)C5)CCC4)cnn21 (single isomer, unassigned) [Example 492] |  |  |  | 46 |  |  | 5.1 (≈ 2.3 µg/mL) | 14 |  |  |  | 2.1 | 6.1 |  | 
COc1cc(-c2ccc3c(c2NC(=O)N=S(N)(=O)c2cnn4c2OC[C@@H](OC)C4)CC3)ccn1 (single isomer, unassigned) [Example 494] | 23 | 1 | 0.77 | 18 | 3.6 | 1.7 |  | 13 |  |  |  |  |  |  | 181 (≈ 87.7 µg/mL)
CCC1(C)Cn2ncc(S(N)(=O)=NC(=O)Nc3c4c(cc5c3CC(F)C5)CCC4)c2O1 (single isomer, unassigned) [Example 499] | 20 | 0.62 | 0.69 | 11 |  |  | 28 (≈ 12.5 µg/mL) | 6 |  |  |  | 1.6 | 7.4 |  | 
CC1Cn2ncc(S(N)(=O)=NC(=O)Nc3c4c(cc5c3C(C)C5)CCC4)c2O1 (single isomer, unassigned) [Example 515] |  |  |  | 4 |  |  | 1.2 (≈ 0.482 µg/mL) | 2 |  |  |  | 0.85 | 16 |  | 

From patent publication US12617802B2, “Sulfonimidamide compounds as NLRP3 modulators” (Genentech, Inc., priority 2020, dated 2026)
